The experiment concerns CA3 layer of the hippocampus in rats 24 hrs following TBI. Put plainly: Hippocampal damage after TBI (lateral fluid percussion injury), Fluoro-Jade staining of degenerating neurons. As to conditions: vs vehicle (2.5% DMSO in saline), p<0.0293 ANOVA with Dunnett's post-hoc test. It is filed as in vivo, Male Sprague-Dawley rats. The protocol: FIG. 1 illustrates that Carvedilol treatment reduces hippocampal damage following TBI. Representative images of the CA3 layer of the hippocampus in rats 24 hrs following TBI, vehicle treated (A) and carvedilol treated (B) at 1 and 12 hrs following the insult. […] Images were taken at 4× magnification. Dosing was subcutaneous and the vehicle is 2.5% DMSO in saline.
All animal procedures were conducted in accordance with the NIH Guide for the Care and Use of Laboratory Animals following a protocol approved by the Institutional Animal Care and Use Committee at the University of South Florida. Male Sprague-Dawley rats (Harlan, Indianapolis, Ind.) weighing 250 to 300 g were housed in a climate-controlled room with water and laboratory chow available ad libitum. A total of 33 animals were used in this study.
Induction of Lateral Fluid Percussion Injury (LFPI) Animals were anesthetized using a mixture of ketamine (90 mg/kg)/xylazine (10 mg/kg) (IP). […] Impact pressures were measured using a transducer attached to the point of impact on the fluid percussive device. […]
All quantitation was performed using the NIH Image J software. […] Photomicrographs captured at 200× magnification with an Olympus DP70 camera were used for quantification. […] The channels of the RGB images were split and the green channel was used for quantitation of the FJ staining images. […]

On to `COc1ccccc1OCCNCC(O)COc1cccc2[nH]c3ccccc3c12` (racemic) [Carvedilol, (±)-[3-(9H-carbazol-4-yloxy)-2-hydroxypropyl][2-(2-methoxyphenoxy)ethyl]amine], for which the “hippocampal damage following TBI” value (subcutaneous dosing at 1 and 12 hrs following the insult) was “significantly reduces hippocampal damage”; the “hippocampal damage following TBI” value (subcutaneous dosing at 6 and 12 (hrs) following the insult) is reported as “significantly reduces hippocampal damage”.

The record behind these values is US20140080885A1, “METHODS OF TREATING TRAUMATIC BRAIN INJURY” (University of South Florida (A Florida Non-Profit …, priority 2012, published 2014).
